From patent US20050209231A1, “Compositions and methods for inducing cardiomyogenesis” (priority 2004, published 2005)
pEC50: −log10 of the molar value.

Key:
[1] = test system: P19CL6 cells; test: MHC expression by immunostaining (anti-MHC antibody MF20), secondary assay for differentiation; type: cell-based, murine; conditions: for Optimal Activity: % cells positive for MHC after 7 days; for pEC50: Mus musculus, P19CL6, inducing MHC expression
Method: MHC is one of the essential motor proteins responsible for cardiac muscle contractibility and was used as a secondary assay for differentiation. […] The P19CL6 cell line is a subclone of P19 EC cells with higher potential for cardiomyogenesis. See Habara-Ohkubo, Cell Struct. Funct., 21:101-110 (1996). MHC expression was determined in P19CL6 cells by immunostaining cells with anti-MHC antibody (MF20) (FIG. 2F).
The optimal activities of the cardiogenols in Table 1 are indicated by a series of "+" signs, as follows: ++: 10-25% cells are positive for MHC after 7 days; +++: 25-40% cells are positive for MHC after 7 days; ++++: 40-55% cells are positive for MHC after 7 days.

[2] = Toxicity of the cardiogenols (Table 1); type: cell-based, murine; conditions: mouse, P19CL6 cells
[3] = test system: R1 mouse ESCs; test: Differentiation of undifferentiated R1 ESCs in monolayer into cardiac muscle (immunostaining of MHC, GATA-4, MEF2, Nkx2.5; beating); type: cell-based
Method: FIG. 2. Immunostaining of cardiac muscle markers in ESCs (A to E) and P19CL6 cells (F) treated with 0.25 μM cardiogenol C: (A) and (F) Myosin Heavy Chain (green); (B) GATA-4 (red); (C) MEF2 (red); (D) Nkx2.5 (red); and (E) Myosin Heavy Chain (green) and MEF2 (red). Cell nuclei were stained with DAPI (blue). Cells were fixed with 4% paraformaldehyde (Sigma) for 20 min. Cell staining was performed in PBS (Gibco) with 0.3% Triton X-100 and 6% horse serum. Primary antibodies were used at the following dilutions: myosin heavy chain (MHC) mouse monoclonal antibody MF20 (Developmental Studies Hybridoma Bank, 1:200), rabbit polyclonal anti-GATA-4 antibody (Santa Cruz Biotech, 1:300), rabbit anti-MEF2 antibody (Santa Cruz Biotech, 1:100) and goat anti-Nkx2.5 antibody (Santa Cruz Biotech, 1:100). Secondary antibodies were Cy2-conjugated anti-mouse (1:300), or Cy3-conjugated anti-rabbit or anti-goat antibodies (Jackson ImmunoResearch, 1:500). Cell nuclei were stained with DAPI (Roche). Images were taken with a Nikon Eclipes TE2000 microscope with 200-fold magnification. Double or triple-labeled images were assembled in Metamorph.
To confirm that these compounds are general cardiomyogenesis inducing agents, their effects on undifferentiated R1 mouse ESCs were analyzed. R1 mouse ESCs can be maintained in a pluripotent state with the addition of leukemia inhibitory factor (LIF) in the culture medium. The embryonic stem cell line R1 was cultured in gelatin-coated tissue culture dishes with Knockout DMEM with 15% ES serum replacement, 1 mM L-glutamine (from Gibco), 1% nonessential amino acids stock, 1% nucleosides stock, 0.1 mM […] (from Specialty Media) and 1000 units/mL of leukemia inhibitory factor (LIF, from Chemicon).
For differentiation, R1 cells were plated in a monolayer (10000 cells/well) in gelatin-coated 384-well or 96-well plates with 100 μL of DMEM with 10% FBS and 0.25 μM of compounds. LIF was not present during differentiation. After 7 days in culture (3 days with compounds and then, after changing the medium without additional compound added, another 4 days), the presence of beating cardiac muscle was visualized under a microscope. In addition to the expression of MHC (FIG. 2A), the cardiac specific gene, GATA-4, was detected by immunofluorescent staining using anti-GATA4 antibody (FIG. 2B).
Cardiogenol C has a […] aniline substituting at the pyrimidine C2 position and is very potent with an EC50 of 0.1 μM for inducing the differentiation of MHC positive cardiomyocytes from ESCs. […] See Boheler et al., Circ. Res., 91:189-201 (2002). […] This is in contrast to the current standard method of inducing cardiomyogenesis of ESCs by aggregation and formation of EBs, which results in only 5% of the cell population forming cardiomyocytes. See Boheler et al., (2002).
To further characterize the activity of Cardiogenol C, the expression of the cardiac muscle cell specific transcription factors MEF2 and Nkx2.5 was examined (FIGS. 2C and D). Members of the MEF2 family are essential for muscle development. See, e.g., Edmondson, et al., Development, 1251-1263 (1994); Lin et al., Science, 276:1404-1407 (1997). Nkx2.5 together with GATA-4 regulates the expression of multiple cardiac muscle specific genes (e.g., myosin light chain 2V, atria natriuretic factor, eHAND and homeodomain transcription factor HOP). See, e.g., Small et al., Cell, 110:725-735 (2002); Shin et al., Cell, 110:725-35 (2002). Moreover, the targeted interruption of Nkx2.5 gene is embryonic lethal and results in arrest of cardiac development. See, e.g., Lyons et al., Genes Dev., 9:1654-66 (1995). Approximately 90% of cardiogenol C treated cells stain positive for MEF2 and Nkx2.5, further confirming that ESCs are differentiated into cardiac muscle by cardiogenol C.

[4] = test system: R1 cells; test: Cellular toxicity and cell death in R1 cells; type: cell-based
[5] = R1 cells, 0.25 μM compound for 3 days, then 4 days in medium without compound

SMILES: OCCNc1ccnc(Nc2ccc(Oc3ccccc3)cc2)n1 [Cardiogenol B]
- Optimal Activity [1]: +++ (25-40% cells are positive for MHC after 7 days)
- pEC50 [1]: 6.30
- pEC50 [2]: 5.30

SMILES: COc1ccc(Nc2nccc(NCCO)n2)cc1 [Cardiogenol C]
- treated cells stain positive for MEF2 ([3]; ESCs): Approximately 90%
- treated cells stain positive for Nkx2.5 ([3]; ESCs): Approximately 90%
- pEC50 ([3]; Mus musculus, Cardiomyocyte, read-out: EC50 for inducing the differentiation of MHC positive cardiomyocytes from ESCs): 7.00
- beating areas (functional cardiac muscle) ([3]; R1 cells treated with compound): many beating areas
- cells positive for GATA-4 [3, 5]: more than 90%
- cells stained positive for MHC [3, 5]: more than 50%
- Optimal Activity [1]: ++++ (40-55% cells are positive for MHC after 7 days)
- pEC50 [1]: 7.00
- pEC50 [2]: 4.60
- concentration showing significant cellular toxicity [4]: greater than 25 μM

SMILES: OCCNc1ccnc(Nc2ccc(Nc3ccccc3)cc2)n1 [Cardiogenol A]
- Optimal Activity [1]: ++ (10-25% cells are positive for MHC after 7 days)
- pEC50 [1]: 6.00
- pEC50 [2]: 5.30

SMILES: OCCNc1ccnc(Nc2ccc(/C=C/c3ccccc3)cc2)n1 [Cardiogenol D]
- Optimal Activity [1]: ++++ (40-55% cells are positive for MHC after 7 days)
- pEC50 [1]: 7.00
- pEC50 [2]: 5.60
